Data taken from US20220249463A1, “METHODS OF ALTERING CARDIAC REMODELING USING COMPOUNDS THAT PROMOTE GLUCOSE OXIDATION” (IMBRIA PHARMACEUTICALS, INC., priority 2019, published 2022).
Several values for one entry are separate records, joined by “and”; a condition that tells them apart may be missing. Identical values can stand only once.

How the values were obtained:
[1] = system: isolated hearts after ischemia-reperfusion; test: Ischemia-reperfusion (IR): coronary flow; format: in vivo, mice; settings: TMZ 20 μM, TNF 2 μM each, TNS 20 μM each, individual hearts, MEAN = group mean; for CF20: coronary flow at 20 minutes; for CF170: coronary flow at 170 minutes, after IR; for CF170/CF20: ratio of flow at 170 minutes to flow at 20 minutes
Procedure: FIG. 38 is a schematic of the ischemia-reperfusion (IR) method used to analyze the effects of selected compositions on coronary flow, cardiac function, and infarct size. […] At 20 minutes, ischemia was induced, and coronary flow was analyzed. At 50 minutes, reperfusion was initiated to restore blood flow. At 170 minutes, coronary flow and cardiac function was analyzed, and then the hearts were preserved, sectioned, and infarct size was measured by triphenyltetrazolium chloride (TTC) staining. FIG. 39 is a graph of coronary flow of after IR.

[2] = system: TAC mice; test: TAC mice: cardiac fibrosis, Masson's trichrome; format: in vivo; settings: end of 6-week experiment
[3] = system: TAC mice; test: TAC mice, six weeks treatment: heart weight and heart weight/body weight; format: in vivo; settings: 6 weeks; for cardiac mass: TMZ 6, CV-8814 7.5, CV-8972 10 mg/kg/day, osmotic minipump
[4] = system: isolated hearts after ischemia-reperfusion; test: Ischemia-reperfusion (IR): infarct size by TTC staining; format: in vivo, mice
Procedure: FIG. 38 is a schematic of the ischemia-reperfusion (IR) method used to analyze the effects of selected compositions on coronary flow, cardiac function, and infarct size. […] At 20 minutes, ischemia was induced, and coronary flow was analyzed. At 50 minutes, reperfusion was initiated to restore blood flow. At 170 minutes, coronary flow and cardiac function was analyzed, and then the hearts were preserved, sectioned, and infarct size was measured by triphenyltetrazolium chloride (TTC) staining. […] FIG. 42 is graph of infarct size after IR.

[5] = system: isolated hearts after ischemia-reperfusion; test: Ischemia-reperfusion (IR): cardiac function (left ventricular pressure); set-up: species or system mice; settings: for left ventricular developed pressure (LVDP), Mean: Table 6 group mean; for HR / LVDP / LVDPxHR / LVEDP / LVESP: individual hearts, MEAN = group mean
Procedure: FIG. 38 is a schematic of the ischemia-reperfusion (IR) method used to analyze the effects of selected compositions on coronary flow, cardiac function, and infarct size. […] At 20 minutes, ischemia was induced, and coronary flow was analyzed. At 50 minutes, reperfusion was initiated to restore blood flow. At 170 minutes, coronary flow and cardiac function was analyzed, and then the hearts were preserved, sectioned, and infarct size was measured by triphenyltetrazolium chloride (TTC) staining. FIG. 40 is graph of left ventricular developed pressure (LVDP) after IR.

[6] = system: TAC mice; test: TAC mice: echocardiography; format: in vivo
[7] = system: TAC mice; test: TAC mice: left ventricular pressure with Mikro-tip catheter; format: in vivo; settings: end of 6-week treatment; for left ventricular developed pressure (LVDP): TMZ 6, NA 2.4, CV-8814 7.5, CV-8972 10 mg/kg/day
[8] = system: Glutamate, Kainate; format: binding, rat; settings: 10 μM CV-8814
[9] = system: Protein Serine/Threonine Kinase, PKC, Non-selective; format: biochemical, rat; settings: 10 μM CV-8814
[10] = system: Transporter, GABA; format: binding, rat; settings: 10 μM CV-8814
[11] = system: Glutamate, NMDA, Agonism; format: binding, rat; settings: 10 μM CV-8814
[12] = system: Nicotinic Acetylcholine; format: binding, human; settings: 10 μM CV-8814
[13] = molecular target: Potassium Channel [KATP] (Cricetus cricetus, UniProt Q09427); format: binding, hamster; settings: 10 μM CV-8814
[14] = system: GABAA, Ro-15-1788, Hippocampus; format: binding, rat; settings: 10 μM CV-8814
[15] = system: Sodium Channel, Site 2; format: binding, rat; settings: 10 μM CV-8814
[16] = system: Glycine, Strychnine-Sensitive; format: binding, rat; settings: 10 μM CV-8814
[17] = system: Calcium Channel L-Type, Phenylalkylamine; format: binding, rat; settings: 10 μM CV-8814
[18] = system: Phosphodiesterase PDE4; format: biochemical, human; settings: 10 μM CV-8814
[19] = system: GABAA, Flunitrazepam, Central; format: binding, rat; settings: 10 μM CV-8814
[20] = system: Glutamate, NMDA, Polyamine; format: binding, rat; settings: 10 μM CV-8814
[21] = system: GABAA, Chloride Channel, TBOB; format: binding, rat; settings: 10 μM CV-8814
[22] = system: Glutamate, AMPA; format: binding, rat; settings: 10 μM CV-8814
[23] = system: Transporter, Adenosine; format: binding, guinea pig; settings: 10 μM CV-8814
[24] = system: Glutamate, NMDA, Phencyclidine; format: binding, rat; settings: 10 μM CV-8814
[25] = system: Calcium Channel L-Type, Dihydropyridine; format: binding, rat; settings: 10 μM CV-8814
[26] = system: ATPase, Na^+/K^+, pig heart; format: biochemical; settings: 10 μM CV-8814
[27] = system: Phosphodiesterase PDE3; format: biochemical, human; settings: 10 μM CV-8814
[28] = system: Calcium Channel L-Type, Benzothiazepine; format: binding, rat; settings: 10 μM CV-8814
[29] = TMZ 6, NA 2.4, CV-8814 7.5, CV-8972 10 mg/kg/day
[30] = TMZ 20 μM, TNF 2 μM each, TNS 20 μM each

Sequence of Potassium Channel [KATP] (Q09427 whole entry): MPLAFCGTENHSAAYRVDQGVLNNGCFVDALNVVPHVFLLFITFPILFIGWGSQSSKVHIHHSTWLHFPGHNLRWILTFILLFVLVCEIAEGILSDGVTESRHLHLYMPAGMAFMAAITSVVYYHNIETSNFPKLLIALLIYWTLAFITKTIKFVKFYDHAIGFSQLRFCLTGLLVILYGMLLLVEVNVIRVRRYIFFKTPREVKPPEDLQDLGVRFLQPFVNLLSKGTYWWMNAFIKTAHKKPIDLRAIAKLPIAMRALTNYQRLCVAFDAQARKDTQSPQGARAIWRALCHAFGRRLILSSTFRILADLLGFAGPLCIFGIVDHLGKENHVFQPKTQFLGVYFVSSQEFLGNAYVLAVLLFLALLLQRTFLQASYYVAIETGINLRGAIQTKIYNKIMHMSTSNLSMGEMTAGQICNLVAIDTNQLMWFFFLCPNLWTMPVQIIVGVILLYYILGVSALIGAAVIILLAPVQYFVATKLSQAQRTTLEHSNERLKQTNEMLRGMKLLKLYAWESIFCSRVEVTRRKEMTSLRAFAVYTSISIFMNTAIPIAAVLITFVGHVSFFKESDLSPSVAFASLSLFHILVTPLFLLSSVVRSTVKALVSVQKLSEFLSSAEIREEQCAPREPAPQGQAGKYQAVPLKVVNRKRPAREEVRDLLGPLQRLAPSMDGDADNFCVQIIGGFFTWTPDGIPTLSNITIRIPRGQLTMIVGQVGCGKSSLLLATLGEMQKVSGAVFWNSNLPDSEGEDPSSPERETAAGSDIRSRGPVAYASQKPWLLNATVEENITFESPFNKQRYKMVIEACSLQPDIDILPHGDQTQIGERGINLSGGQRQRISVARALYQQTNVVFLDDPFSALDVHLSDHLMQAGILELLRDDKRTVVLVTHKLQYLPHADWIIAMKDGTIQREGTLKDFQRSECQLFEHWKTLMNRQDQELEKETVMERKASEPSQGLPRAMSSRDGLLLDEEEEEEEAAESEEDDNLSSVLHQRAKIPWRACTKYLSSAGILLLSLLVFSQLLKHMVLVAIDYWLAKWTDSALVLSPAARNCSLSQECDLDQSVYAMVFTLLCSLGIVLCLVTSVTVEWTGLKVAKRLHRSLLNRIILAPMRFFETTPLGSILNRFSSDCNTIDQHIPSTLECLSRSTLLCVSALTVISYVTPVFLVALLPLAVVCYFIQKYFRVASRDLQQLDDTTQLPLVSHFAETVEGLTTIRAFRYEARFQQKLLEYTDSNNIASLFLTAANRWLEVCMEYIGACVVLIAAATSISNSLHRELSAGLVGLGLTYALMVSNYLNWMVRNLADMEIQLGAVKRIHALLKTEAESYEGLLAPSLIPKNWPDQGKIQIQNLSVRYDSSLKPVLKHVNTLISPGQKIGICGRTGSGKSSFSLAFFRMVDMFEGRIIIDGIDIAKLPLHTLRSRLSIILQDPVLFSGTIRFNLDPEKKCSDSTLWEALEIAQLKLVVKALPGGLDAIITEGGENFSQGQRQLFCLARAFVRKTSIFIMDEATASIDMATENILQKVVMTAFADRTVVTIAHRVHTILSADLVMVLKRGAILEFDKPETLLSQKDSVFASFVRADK

COc1ccc(CN2CCNCC2)c(OC)c1OC [TMZ, trimetazidine]
CF20 [1]: 2.13 mL/min and 1.7 mL/min and 2.18 mL/min and 3.83 mL/min and 1.72 mL/min and 2.4 mL/min and 2.14 mL/min and 2.03 mL/min | CF20 ([1]; mean): 2.27 mL/min | CF170 [1]: 0.0516 mL/min and 0.1 mL/min and 0.0778 mL/min and 0.129 mL/min and 0.0898 mL/min and 0.0656 mL/min and 0.0556 mL/min and 0.13 mL/min | CF170 ([1]; mean): 0.0874 mL/min | CF170/CF20 [1]: 2.42E+01 μl/ml and 5.87E+01 μl/ml and 3.57E+01 μl/ml and 3.37E+01 μl/ml and 5.21E+01 μl/ml and 2.73E+01 μl/ml and 2.60E+01 μl/ml and 6.39E+01 μl/ml | CF170/CF20 ([1]; mean): 4.02E+01 μl/ml | cardiac fibrosis (fibrotic area to whole heart tissue area) [2]: 7.6±1% | cardiac remodeling in TAC mice (in words) [3, 29]: effectively inhibited cardiac remodeling | cardiac mass ([3]; TAC mice): 224 ± 12 mg | infarct size after IR (in words) [4, 30]: decreased infarct size | IS/LV ([4]; individual isolated hearts after ischemia-reperfusion): 58% and 49% (2×) and 44% and 71% and 64% and 68% and 60% and 43% and 51% | IS/LV Mean ([4]; mean of 10 hearts of the group): 56% | left ventricular developed pressure (LVDP), Mean ([5]; T20 (20 minutes)): 55.86 | left ventricular developed pressure (LVDP), Mean ([5]; T170 (170 minutes, after IR)): 48.91 | cardiac function after IR (in words) [5, 30]: prevented a decline in cardiac function | HR ([5]; after 2h reperfusion): 1.18E+02 and 1.19E+02 and 1.01E+02 and 1.51E+02 and 6.70E+01 and 9.22E+01 and 2.22E+02 and 1.70E+02 and 1.16E+02 and 2.38E+02 | LVDP ([5]; after 2h reperfusion): 2.14E+01 and 4.34E+01 and 5.22E+01 and 2.97E+01 and 4.84E+01 and 4.67E+01 and 4.10E+01 and 7.65E+01 and 5.53E+01 and 7.43E+01 | LVDPxHR ([5]; after 2h reperfusion): 2.52E+03 and 5.15E+03 and 5.28E+03 and 4.49E+03 and 3.24E+03 and 4.31E+03 and 9.11E+03 and 1.30E+04 and 6.44E+03 and 1.77E+04 | LVEDP ([5]; after 2h reperfusion): 2.93E+01 and 3.31E+01 and 3.96E+01 and 1.80E+01 and 3.36E+00 and 1.87E+00 and 1.99E+01 and 3.21E+01 and 1.84E+01 and 1.77E+00 | LVESP ([5]; after 2h reperfusion): 5.07E+01 and 7.66E+01 and 9.19E+01 and 4.77E+01 and 5.18E+01 and 4.86E+01 and 6.09E+01 and 1.09E+02 and 7.38E+01 and 7.61E+01 | HR ([5]; after 2h reperfusion, mean): 1.39E+02 | LVDP ([5]; after 2h reperfusion, mean): 4.89E+01 | LVDPxHR ([5]; after 2h reperfusion, mean): 6.82E+03 | LVEDP ([5]; after 2h reperfusion, mean): 1.97E+01 | LVESP ([5]; after 2h reperfusion, mean): 6.86E+01 | LVESP ([5]; pre-ischemia, TMZ 20 μM, TNF 2 μM each, TNS 20 μM each): 7.58E+01 and 8.44E+01 and 7.15E+01 and 5.47E+01 and 6.87E+01 and 4.27E+01 and 3.30E+01 (2×) and 6.60E+01 and 7.38E+01 | LVESP ([5]; pre-ischemia, TMZ 20 μM, TNF 2 μM each, TNS 20 μM each, mean): 6.03E+01 | HR ([5]; pre-ischemia): 2.63E+02 and 2.93E+02 and 1.66E+02 and 3.35E+02 and 3.58E+02 and 3.33E+02 and 3.48E+02 and 3.21E+02 and 2.67E+02 and 3.32E+02 | LVDP ([5]; pre-ischemia): 6.93E+01 and 7.90E+01 and 6.48E+01 and 5.30E+01 and 6.51E+01 and 3.80E+01 and 2.82E+01 and 3.15E+01 and 5.87E+01 and 7.11E+01 | LVDPxHR ([5]; pre-ischemia): 1.83E+04 and 2.31E+04 and 1.08E+04 and 1.77E+04 and 2.33E+04 and 1.26E+04 and 9.82E+03 and 1.01E+04 and 1.57E+04 and 2.36E+04 | LVEDP ([5]; pre-ischemia): 6.53E+00 and 5.43E+00 and 6.76E+00 and 1.74E+00 and 3.58E+00 and 4.71E+00 and 4.77E+00 and 1.46E+00 and 7.25E+00 and 2.70E+00 | HR ([5]; pre-ischemia, mean): 3.02E+02 | LVDP ([5]; pre-ischemia, mean): 5.59E+01 | LVDPxHR ([5]; pre-ischemia, mean): 1.68E+04 | LVEDP ([5]; pre-ischemia, mean): 4.49E+00 | LV mass ([6]; 3-weeks after TAC): 153 ± 8 mg | IVRT ([6]; 6-weeks after TAC): 36 ± 1 ms | LV mass ([6]; 6-weeks after TAC): 176 ± 15 mg | +dp/dtm [7]: 5157±615 mm Hg/sec | left ventricular developed pressure (LVDP) [7]: 137±10 mm Hg

COc1ccc(CN2CCN(CCO)CC2)c(OC)c1OC [CV-8814, 2-(4-(2,3,4-trimethoxybenzyl)piperazin-1-yl)ethan-1-ol]
Inhibition [8]: < 50% | Inhibition [9]: < 50% | cardiac remodeling in TAC mice (in words) [3, 29]: effectively inhibited cardiac remodeling | cardiac mass ([3]; TAC mice): 227 ± 12 mg | heart weight to body weight ratio ([3]; TAC mice, TMZ 6, NA 2.4, CV-8814 7.5, CV-8972 10 mg/kg/day, subcutaneous osmotic minipump): 7.6 ± 0.4 mg/g | Inhibition [10]: < 50% | Inhibition [11]: < 50% | Inhibition [12]: < 50% | inhibition at 10 µM [13]: < 50% | Inhibition [14]: < 50% | Inhibition [15]: < 50% | Inhibition [16]: < 50% | Inhibition [17]: < 50% | Inhibition [18]: < 50% | Inhibition [19]: < 50% | Inhibition [20]: < 50% | Inhibition [21]: < 50% | Inhibition [22]: < 50% | Inhibition [23]: < 50% | Inhibition [24]: < 50% | Inhibition [25]: < 50% | Inhibition [26]: < 50% | EF (in words) ([6]; 3-weeks after TAC): significantly increased | IVRT ([6]; 3-weeks after TAC): 33 ± 1 ms | IVSd ([6]; 3-weeks after TAC): 1.27±0.02 mm | LV mass ([6]; 3-weeks after TAC): 152 ± 9 mg | left ventricular FS ([6]; 3-weeks after TAC, CV-8814 7.5, CV-8972 10 mg/kg/day): 46%±2% | IVRT ([6]; 6-weeks after TAC): 28 ± 2 ms | IVSd ([6]; 6-weeks after TAC): 1.26±0.04 mm | left ventricular FS ([6]; 6-weeks after TAC (end of the experiment)): 44%±3% | cardiac functions in TAC mice (in words) ([6]; conclusion, 6 weeks treatment): improved cardiac functions | EF (in words) ([6]; to the end of the study (6 weeks)): protective effect was sustained to the end of the study | +dp/dtm [7]: 4572±268 mm Hg/sec | left ventricular developed pressure (LVDP) [7]: 123±8 mm Hg | Inhibition [27]: < 50% | Inhibition [28]: < 50%

O=C(O)c1cccnc1 [NA, nicotinic acid, reference compound]
cardiac fibrosis (fibrotic area to whole heart tissue area) [2]: 8.2±1% | cardiac remodeling in TAC mice (in words) [3, 29]: no significant effect on cardiac remodeling | IVRT ([6]; 6-weeks after TAC): 29 ± 2 ms | IVSd (in words) ([6]; TAC mice, NA 2.4 mg/kg/day): decreased IVSd | LV mass (in words) ([6]; TAC mice, NA 2.4 mg/kg/day): no effect on LV mass | left ventricular developed pressure (LVDP) [7]: 141±20 mm Hg
